Key:
[1] = logP (HCOOH); format: physicochemical; details: HCOOH (formic acid)
Description: Table 2 (physicochemical characterization of selected synthesis examples)

[2] = system: Abutilon theophrasti; assay: Pre-emergence herbicidal effect; format: in vivo; details: scored visually after 3 weeks
How it was run: (§1)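 Seeds in sandy loam were covered with soil and treated pre-emergence with WP or EC formulations applied as aqueous spray with 0.2% wetting agent. Percent damage was scored visually after 3 weeks relative to untreated controls.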

[3] = system: Viola tricolor; assay: Pre-emergence herbicidal effect; format: in vivo; details: scored visually after 3 weeks
How it was run: as §1

[4] = system: Polygonum convolvulus; assay: Pre-emergence herbicidal effect; format: in vivo; details: scored visually after 3 weeks
How it was run: as §1

[5] = system: Stellaria media; assay: Pre-emergence herbicidal effect; format: in vivo; details: scored visually after 3 weeks
How it was run: as §1

[6] = system: Matricaria inodora; assay: Pre-emergence herbicidal effect; format: in vivo; details: scored visually after 3 weeks
How it was run: as §1

[7] = system: Alopecurus myosuroides; assay: Pre-emergence herbicidal effect; format: in vivo; details: scored visually after 3 weeks
How it was run: as §1

[8] = system: Veronica persica; assay: Pre-emergence herbicidal effect; format: in vivo; details: scored visually after 3 weeks
How it was run: as §1

[9] = system: Lolium multiflorum; assay: Pre-emergence herbicidal effect; format: in vivo; details: scored visually after 3 weeks
How it was run: as §1

[10] = system: Amaranthus retroflexus; assay: Pre-emergence herbicidal effect; format: in vivo; details: scored visually after 3 weeks
How it was run: as §1

[11] = system: Cyperus esculentus; assay: Pre-emergence herbicidal effect; format: in vivo; details: scored visually after 3 weeks
How it was run: as §1

[12] = system: Setaria viridis; assay: Pre-emergence herbicidal effect; format: in vivo; details: scored visually after 3 weeks
How it was run: as §1

[13] = system: Echinochloa crus-galli; assay: Pre-emergence herbicidal effect; format: in vivo; details: scored visually after 3 weeks
How it was run: as §1

[14] = system: Avena fatua; assay: Pre-emergence herbicidal effect; format: in vivo; details: scored visually after 3 weeks
How it was run: as §1

[15] = system: Abutilon theophrasti; assay: Post-emergence herbicidal effect; format: in vivo; details: assessed visually after about 3 weeks vs untreated controls
How it was run: (§2)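 Ratings are visual percentages taken around 3 weeks after treatment, compared with untreated plants. Treatment consisted of an aqueous spray of WP or EC formulations, with 0.2% wetting agent, onto one-leaf-stage weeds raised from seed in sandy loam.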

[16] = system: Viola tricolor; assay: Post-emergence herbicidal effect; format: in vivo; details: assessed visually after about 3 weeks vs untreated controls
How it was run: as §2

[17] = system: Polygonum convolvulus; assay: Post-emergence herbicidal effect; format: in vivo; details: assessed visually after about 3 weeks vs untreated controls
How it was run: as §2

[18] = system: Stellaria media; assay: Post-emergence herbicidal effect; format: in vivo; details: assessed visually after about 3 weeks vs untreated controls
How it was run: as §2

[19] = system: Matricaria inodora; assay: Post-emergence herbicidal effect; format: in vivo; details: assessed visually after about 3 weeks vs untreated controls
How it was run: as §2

[20] = system: Ipomoea purpurea; assay: Post-emergence herbicidal effect; format: in vivo; details: assessed visually after about 3 weeks vs untreated controls
How it was run: as §2

[21] = system: Alopecurus myosuroides; assay: Post-emergence herbicidal effect; format: in vivo; details: assessed visually after about 3 weeks vs untreated controls
How it was run: as §2

[22] = system: Veronica persica; assay: Post-emergence herbicidal effect; format: in vivo; details: assessed visually after about 3 weeks vs untreated controls
How it was run: as §2

[23] = system: Lolium multiflorum; assay: Post-emergence herbicidal effect; format: in vivo; details: assessed visually after about 3 weeks vs untreated controls
How it was run: as §2

[24] = system: Amaranthus retroflexus; assay: Post-emergence herbicidal effect; format: in vivo; details: assessed visually after about 3 weeks vs untreated controls
How it was run: as §2

[25] = system: Setaria viridis; assay: Post-emergence herbicidal effect; format: in vivo; details: assessed visually after about 3 weeks vs untreated controls
How it was run: as §2

[26] = system: Echinochloa crus-galli; assay: Post-emergence herbicidal effect; format: in vivo; details: assessed visually after about 3 weeks vs untreated controls
How it was run: as §2

[27] = system: Avena fatua; assay: Post-emergence herbicidal effect; format: in vivo; details: assessed visually after about 3 weeks vs untreated controls
How it was run: as §2

Structure (SMILES): Cc1sc2c(c1C)C(Nc1ncc(C(F)(F)F)c(N)n1)CCC2 (centres unmarked) [compound 213, N2-(2,3-Dimethyl-4,5,6,7-tetrahydrobenzothiophen-4-yl)-5-(trifluoromethyl)pyrimidine-2,4-diamine]
- chromatographic logP [1]: 2.66
- ABUTH pre-emergence efficacy (herbicidal activity) ([2]; Dosage 320 g/ha): 100%
- VIOTR pre-emergence efficacy (herbicidal activity) ([3]; Dosage 80 g/ha): 100%
- VIOTR pre-emergence efficacy (herbicidal activity) ([3]; Dosage 320 g/ha): 100%
- POLCO pre-emergence efficacy (herbicidal activity) ([4]; Dosage 80 g/ha): 90%
- POLCO pre-emergence efficacy (herbicidal activity) ([4]; Dosage 320 g/ha): 100%
- STEME pre-emergence efficacy (herbicidal activity) ([5]; Dosage 80 g/ha): 100%
- STEME pre-emergence efficacy (herbicidal activity) ([5]; Dosage 320 g/ha): 100%
- MATIN pre-emergence efficacy (herbicidal activity) ([6]; Dosage 80 g/ha): 100%
- MATIN pre-emergence efficacy (herbicidal activity) ([6]; Dosage 320 g/ha): 100%
- ALOMY pre-emergence efficacy (herbicidal activity) ([7]; Dosage 80 g/ha): 100%
- ALOMY pre-emergence efficacy (herbicidal activity) ([7]; Dosage 320 g/ha): 100%
- VERPE pre-emergence efficacy (herbicidal activity) ([8]; Dosage 80 g/ha): 100%
- VERPE pre-emergence efficacy (herbicidal activity) ([8]; Dosage 320 g/ha): 100%
- LOLMU pre-emergence efficacy (herbicidal activity) ([9]; Dosage 80 g/ha): 80%
- LOLMU pre-emergence efficacy (herbicidal activity) ([9]; Dosage 320 g/ha): 100%
- AMARE pre-emergence efficacy (herbicidal activity) ([10]; Dosage 80 g/ha): 100%
- AMARE pre-emergence efficacy (herbicidal activity) ([10]; Dosage 320 g/ha): 100%
- CYPES pre-emergence efficacy (herbicidal activity) ([11]; Dosage 80 g/ha): 80%
- CYPES pre-emergence efficacy (herbicidal activity) ([11]; Dosage 320 g/ha): 80%
- SETVI pre-emergence efficacy (herbicidal activity) ([12]; Dosage 80 g/ha): 100%
- SETVI pre-emergence efficacy (herbicidal activity) ([12]; Dosage 320 g/ha): 100%
- ECHCG pre-emergence efficacy (herbicidal activity) ([13]; Dosage 80 g/ha): 90%
- ECHCG pre-emergence efficacy (herbicidal activity) ([13]; Dosage 320 g/ha): 100%
- AVEFA pre-emergence efficacy (herbicidal activity) ([14]; Dosage 320 g/ha): 100%
- post-emergence efficacy ABUTH ([15]; 80 g/ha): 80%
- post-emergence efficacy ABUTH ([15]; 320 g/ha): 90%
- post-emergence efficacy VIOTR ([16]; 80 g/ha): 90%
- post-emergence efficacy VIOTR ([16]; 320 g/ha): 100%
- post-emergence efficacy POLCO ([17]; 320 g/ha): 90%
- post-emergence efficacy STEME ([18]; 80 g/ha): 80%
- post-emergence efficacy STEME ([18]; 320 g/ha): 90%
- post-emergence efficacy MATIN ([19]; 320 g/ha): 90%
- post-emergence efficacy PHBPU ([20]; 320 g/ha): 90%
- post-emergence efficacy ALOMY ([21]; 320 g/ha): 90%
- post-emergence efficacy VERPE ([22]; 80 g/ha): 80%
- post-emergence efficacy VERPE ([22]; 320 g/ha): 90%
- post-emergence efficacy LOLMU ([23]; 80 g/ha): 80%
- post-emergence efficacy LOLMU ([23]; 320 g/ha): 80%
- post-emergence efficacy AMARE ([24]; 80 g/ha): 80%
- post-emergence efficacy AMARE ([24]; 320 g/ha): 90%
- post-emergence efficacy SETVI ([25]; 80 g/ha): 50%
- post-emergence efficacy SETVI ([25]; 320 g/ha): 90%
- post-emergence efficacy ECHCG ([26]; 320 g/ha): 90%
- post-emergence efficacy AVEFA ([27]; 80 g/ha): 80%
- post-emergence efficacy AVEFA ([27]; 320 g/ha): 80%

Structure (SMILES): Cc1cc2c(s1)CCCC2Nc1ncc(C#N)c(N)n1 (centres unmarked) [compound 282]
- ABUTH pre-emergence efficacy (herbicidal activity) ([2]; Dosage 80 g/ha): 80%
- ABUTH pre-emergence efficacy (herbicidal activity) ([2]; Dosage 320 g/ha): 80%
- VIOTR pre-emergence efficacy (herbicidal activity) ([3]; Dosage 80 g/ha): 100%
- VIOTR pre-emergence efficacy (herbicidal activity) ([3]; Dosage 320 g/ha): 100%
- POLCO pre-emergence efficacy (herbicidal activity) ([4]; Dosage 80 g/ha): 100%
- POLCO pre-emergence efficacy (herbicidal activity) ([4]; Dosage 320 g/ha): 100%
- STEME pre-emergence efficacy (herbicidal activity) ([5]; Dosage 80 g/ha): 100%
- STEME pre-emergence efficacy (herbicidal activity) ([5]; Dosage 320 g/ha): 100%
- MATIN pre-emergence efficacy (herbicidal activity) ([6]; Dosage 80 g/ha): 100%
- MATIN pre-emergence efficacy (herbicidal activity) ([6]; Dosage 320 g/ha): 100%
- ALOMY pre-emergence efficacy (herbicidal activity) ([7]; Dosage 80 g/ha): 100%
- ALOMY pre-emergence efficacy (herbicidal activity) ([7]; Dosage 320 g/ha): 100%
- VERPE pre-emergence efficacy (herbicidal activity) ([8]; Dosage 80 g/ha): 100%
- VERPE pre-emergence efficacy (herbicidal activity) ([8]; Dosage 320 g/ha): 100%
- LOLMU pre-emergence efficacy (herbicidal activity) ([9]; Dosage 80 g/ha): 100%
- LOLMU pre-emergence efficacy (herbicidal activity) ([9]; Dosage 320 g/ha): 100%
- AMARE pre-emergence efficacy (herbicidal activity) ([10]; Dosage 80 g/ha): 100%
- AMARE pre-emergence efficacy (herbicidal activity) ([10]; Dosage 320 g/ha): 100%
- CYPES pre-emergence efficacy (herbicidal activity) ([11]; Dosage 80 g/ha): 80%
- CYPES pre-emergence efficacy (herbicidal activity) ([11]; Dosage 320 g/ha): 100%
- SETVI pre-emergence efficacy (herbicidal activity) ([12]; Dosage 80 g/ha): 100%
- SETVI pre-emergence efficacy (herbicidal activity) ([12]; Dosage 320 g/ha): 100%
- ECHCG pre-emergence efficacy (herbicidal activity) ([13]; Dosage 80 g/ha): 100%
- ECHCG pre-emergence efficacy (herbicidal activity) ([13]; Dosage 320 g/ha): 100%
- AVEFA pre-emergence efficacy (herbicidal activity) ([14]; Dosage 80 g/ha): 80%
- AVEFA pre-emergence efficacy (herbicidal activity) ([14]; Dosage 320 g/ha): 90%
- post-emergence efficacy ABUTH ([15]; 80 g/ha): 90%
- post-emergence efficacy ABUTH ([15]; 320 g/ha): 90%
- post-emergence efficacy VIOTR ([16]; 80 g/ha): 100%
- post-emergence efficacy VIOTR ([16]; 320 g/ha): 100%
- post-emergence efficacy POLCO ([17]; 80 g/ha): 90%
- post-emergence efficacy POLCO ([17]; 320 g/ha): 90%
- post-emergence efficacy STEME ([18]; 80 g/ha): 100%
- post-emergence efficacy STEME ([18]; 320 g/ha): 100%
- post-emergence efficacy MATIN ([19]; 80 g/ha): 90%
- post-emergence efficacy MATIN ([19]; 320 g/ha): 90%
- post-emergence efficacy PHBPU ([20]; 80 g/ha): 80%
- post-emergence efficacy PHBPU ([20]; 320 g/ha): 90%
- post-emergence efficacy ALOMY ([21]; 80 g/ha): 100%
- post-emergence efficacy ALOMY ([21]; 320 g/ha): 100%
- post-emergence efficacy VERPE ([22]; 80 g/ha): 80%
- post-emergence efficacy VERPE ([22]; 320 g/ha): 90%
- post-emergence efficacy LOLMU ([23]; 80 g/ha): 100%
- post-emergence efficacy LOLMU ([23]; 320 g/ha): 100%
- post-emergence efficacy AMARE ([24]; 80 g/ha): 100%
- post-emergence efficacy AMARE ([24]; 320 g/ha): 100%
- post-emergence efficacy SETVI ([25]; 80 g/ha): 100%
- post-emergence efficacy SETVI ([25]; 320 g/ha): 100%
- post-emergence efficacy ECHCG ([26]; 80 g/ha): 100%
- post-emergence efficacy ECHCG ([26]; 320 g/ha): 100%
- post-emergence efficacy AVEFA ([27]; 80 g/ha): 100%
- post-emergence efficacy AVEFA ([27]; 320 g/ha): 100%
